Results on ten compounds are retold here after US6500405B1, “Use of certain amides as probes for detection of antitubulin activity and resistance monitoring” (Dow AgroSciences LLC, priority 1996, dated 2002).

In experiment [1] the test system is tubulin in tobacco suspension-cultured cells. In words: Whole cell binding assay, tritiated compound 1 as probe, tobacco suspension-cultured cells. The settings on record: for Binding of radioligand (% control): antitubulin compound 100 μM, 2 hours preincubation, 20 minutes with tritiated compound 1; for Effect on binding of the radioligand (in words): tobacco cells, tritiated compound 1. Here is the method: The effects of various antitubulin compounds from different chemical classes on binding of compound 1 to tubulin in tobacco suspension-cultured cells is shown in this example.
Aliquots (2 ml) of suspension-cultured tobacco cells grown as described in Example 2 were added to 25 ml capacity glass vials. Each vial then received 5 μl of DMSO (control) or 5 μl of an antitubulin compound dissolved in DMSO. Vials were incubated with shaking at 27° C. for 2 hours, then 5 μl of a 100 μM solution of tritium-labeled compound 1 in DMSO was added. Vials were incubated with shaking at 27° C. for 20 minutes, then binding of the radioligand was stopped by adding 5 μl of unlabeled 40 mM compound 1. The samples were incubated with shaking at 27° C. for a further 20 minutes, then transferred to 15 ml capacity polypropylene centrifuge tubes in an ice bath. Each vial was rinsed with 2 ml ice-cold growth medium (described in example 2) and the rinse solution was then added to the rest of the sample. Following centrifugation at 4° C. for 3 minutes at 2,500 rpm the supernatant was discarded and the pelleted cells were resuspended in 4 ml of ice-cold 10% trichloroacetic acid. Samples were kept for 1 hour in an ice bath, centrifuged again, and the cells resuspended in 4 ml of ice-cold ethanol. After incubation for a further 1 hour in an ice-bath the cells were collected by filtration on glass fiber filters and washed twice with 10 ml of ice-cold ethanol. The filters with washed cells were transferred to scintillation vials, 10 ml of Hydrofluor™ scintillation fluid (National Diagnostics, Manville, N.J.) was added to each, and the samples were counted in a scintillation counter to determine the amount of bound radioactivity. The effects of different antitubulin compounds on binding of the radioligand are presented in Table 7 with the amounts of radioligand bound in the presence of each antitubulin compound expressed as a percentage of the amount of radioligand bound in the DMSO control.

The target in experiment [2] is tubulin in Phytophthora capsici (Phytophthora capsici, UniProt A4ZYP2). In words: Binding assay, tritiated compound 1 as probe, germinated zoospore cysts of Phytophthora capsici. The settings on record: 1 hour preincubation; for IC50: 20 minutes with tritiated compound 1, read-out: IC50 (concentration required to inhibit binding of the radioligand by 50%) (converted). Here is the method:
The effect of zarilamide and compounds 7, 8, 16, 19, 23 and 27 described in Table 1 on binding of compound 1 to tubulin in Phytophthora capsici is shown in this example.
Zoospores of P. capsici were prepared as follows. Petri plates, 9 cm in diameter, containing 15 ml of V-8 agar were inoculated with a mycelial plug of P. capsici and incubated for 4 days in the dark at 25° C., then placed under continuous fluorescent light for 3 days to induce sporulation. To induce zoospore release, 15 ml of sterile water was added to each plate. The plates were incubated at room temperature for 10 minutes, followed by 20 minutes at 4° C., and finally returned to room temperature for 15 minutes. The zoospore-containing fluid was then removed from each plate and adjusted to a density of 5×10^5 zoospores per ml. Assay tubes containing germinated zoospores cysts were prepared by adding 100 μl of zoospore suspension to 400 μl of asparagine-sucrose medium in 16×1.25 cm polypropylene tubes, which were then loosely capped and incubated on a gyrotary shaker at 120 rpm for 24 hours at 26° C.
Tubes containing germinated zoospore cysts then received 2.5 μl of DMSO (control) or 2.5 μl of test compound dissolved in DMSO. Each compound was tested at a series of concentrations. Tubes were incubated with shaking at 26° C. for 1 hour, then 2.5 μl of a 40 μM solution of tritium-labeled compound 1 in DMSO were added. Vials were incubated with shaking at 26° C. for 20 minutes, then binding of the radioligand was stopped by adding 1.5 ml of ice-cold unlabeled 133 μM compound 1, and transferring the tubes to an ice bath. Following centrifugation at 3,400 rpm for 3 minutes, the supernatant was discarded and the pelleted cells were resuspended in 2 ml of ice-cold 10% trichloroacetic acid. Samples were kept for 1 hour in an ice bath, centrifuged again, and the cells resuspended in 2 ml of ice-cold ethanol. After incubation for a further 1 hour in an ice-bath, an additional 4 ml of ice-cold ethanol was added to each tube and the cells were collected by filtration on glass fiber filters in a Brandell cell harvester (Brandel Biomedical Research and Development Laboratories, Inc., Gaithersburg, Md.), and washed twice with 4 ml of ice-cold ethanol. The filters with washed cells were transferred to scintillation vials and 0.1 ml of water was added followed by 1 ml of Protosol™ (Dupont NEN Research Products). The vials were incubated at 60° C. for 30 minutes and cooled to room temperature. Ten ml of Econofluor™ scintillation fluid (Dupont NEN Research Products) was added, and the samples were counted in a scintillation counter to determine the amount of bound radioactivity. IC50 values for each test compound (defined as the concentration required to inhibit binding of the radioligand by 50% as compared to controls lacking the test compound) were determined from dose-response curves and are presented in Table 9.

Sequence of tubulin in Phytophthora capsici (A4ZYP2 entry or part of it): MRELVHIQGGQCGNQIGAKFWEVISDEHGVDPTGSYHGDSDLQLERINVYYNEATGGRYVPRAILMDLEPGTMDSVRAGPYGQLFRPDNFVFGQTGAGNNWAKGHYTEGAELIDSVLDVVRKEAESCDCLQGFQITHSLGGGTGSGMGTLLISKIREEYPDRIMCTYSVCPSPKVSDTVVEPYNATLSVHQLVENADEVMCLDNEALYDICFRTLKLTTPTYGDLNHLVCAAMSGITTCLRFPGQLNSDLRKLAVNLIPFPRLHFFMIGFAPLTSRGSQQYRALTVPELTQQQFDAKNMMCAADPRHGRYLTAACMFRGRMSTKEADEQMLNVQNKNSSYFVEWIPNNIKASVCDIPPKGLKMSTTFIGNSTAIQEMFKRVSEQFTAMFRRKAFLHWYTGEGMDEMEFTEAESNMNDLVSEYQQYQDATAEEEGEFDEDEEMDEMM
Sequence of tubulin in Phytophthora capsici (A4ZYP4 entry or part of it, further chain): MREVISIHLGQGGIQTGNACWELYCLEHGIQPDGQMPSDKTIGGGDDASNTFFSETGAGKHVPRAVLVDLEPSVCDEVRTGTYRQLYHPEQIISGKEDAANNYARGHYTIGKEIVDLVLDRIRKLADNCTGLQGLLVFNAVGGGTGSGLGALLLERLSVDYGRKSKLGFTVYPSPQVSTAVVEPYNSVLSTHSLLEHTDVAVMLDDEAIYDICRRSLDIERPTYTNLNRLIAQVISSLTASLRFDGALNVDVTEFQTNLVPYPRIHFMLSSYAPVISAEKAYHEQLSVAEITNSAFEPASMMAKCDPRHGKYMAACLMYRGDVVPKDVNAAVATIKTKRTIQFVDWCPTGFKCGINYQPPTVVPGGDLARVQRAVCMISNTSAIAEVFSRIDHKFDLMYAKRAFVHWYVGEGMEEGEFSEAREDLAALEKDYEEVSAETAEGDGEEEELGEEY

`CC(C)OC(=O)Nc1cccc(Cl)c1` [Chlorpropham, chlorpropham]: in experiment [1], the “Binding of radioligand (% control)” value turned out to be 29.1 % control and the “Effect on binding of the radioligand (in words)” value is “reduced binding of the radioligand”.
Turning to `CCC(C)(NC(=O)c1cc(Cl)cc(C=NOC)c1)C(=O)CCl` (stereo not shown) [Compound 7], the IC50 in experiment [2] was 2840 nM.
As for `CCC(C)(NC(=O)c1cc(C)cc(Br)c1)C(=O)CCl` (stereo not shown) [Compound 8], the IC50 in experiment [2] is 721 nM.
Still for that read-out and setting: to `CCC(C)(NC(=O)c1cccc(C=NOC)c1)C(=O)CCl` (stereo not shown) [Compound 16] belongs 3760 nM; to `CC(C)(NC(=O)c1cc(Cl)cc(Cl)c1)C(=O)CCl` [Compound 19], 810 nM.
Still for that read-out and setting: as for `CCC(C)(NC(=O)c1cc(Cl)c(Cl)c(Cl)c1)C(=O)CCl` (stereo not shown) [Compound 23], the figure is 168 nM; as for `CC(C)C(C)(NC(=O)c1cc(Cl)cc(Cl)c1)C(=O)CCl` (stereo not shown) [Compound 27], 5440 nM.
For `C#CC(C)(C)NC(=O)c1cc(Cl)cc(Cl)c1` [Pronamide, pronamide], in experiment [1], the “Binding of radioligand (% control)” value came out at 68.7 % control and the “Effect on binding of the radioligand (in words)” value is “reduced binding of the radioligand”.
In the same order, the values of `CCCN(CCC)c1c([N+](=O)[O-])cc(C(F)(F)F)cc1[N+](=O)[O-]` [Trifluralin, trifluralin] are 129.0 % control and “increased binding of the radioligand”.
For the compound `CCOC(C#N)NC(=O)c1ccc(Cl)cc1` (stereo not shown) [Zarilamide, zarilamide], in experiment [2] (20 minutes with tritiated compound 1), the “IC50 (concentration required to inhibit binding of the radioligand by 50%)” value was determined as 7.02 µg/mL.
